Measurements reported in US10934253B2, “Therapeutic compounds and methods” (UNIVERSITY OF TASMANIA, priority 2017, dated 2021).

Key:
[1] = system: HepG2 cells; experiment: Rescue of cell viability in the presence of a mitochondrial inhibitor (rotenone 1 μM); format: cell-based; conditions: for viability at 10 µM: Homo sapiens
Description: (§1) Cytoprotection of HepG2 cells by naphthoquinones was quantified in the presence of the mitochondrial toxin, rotenone. Briefly, HepG2 cells were seeded in 96-well plates at 5000 cells/well in DMEM with 0.3 g/l glucose, 10% FBS and Penicillin-Streptomycin-Glutamine. After overnight incubation under standard conditions, cells were treated with the test compounds (10 μM) for 2 days before cells were challenged with 1 μM rotenone in the presence of 10 μM test compounds in Hank's balanced salt solution (HBSS) for 6 hours. This was followed by post-incubation for an additional 18 hours with only 10 μM test compounds in HBSS. For measurement of cell viability, cells were washed with 100 μL PBS twice and then lysed using 40 μL lysis solution (4 mM EDTA, 0.2% Triton X-100) for 5 min at room temperature (RT) on an orbital shaker at 200 rpm. Then 10 μL of the lysate was mixed with 90 μL of enzyme-substrate mixture (as described above) in a white 96 well plate and luminescence was measured immediately using a plate-reader (Fluoroscan Ascent, Thermo Scientific). The data is expressed as % viability compared to the untreated (no-rotenone) control.
The extent of protection of cellular viability against a rotenone challenge of representative compounds of Formula (I) is shown below in Table 5. Vitamin K, Menadione and Idebenone were used as comparative controls. DMSO was used as a control.

[2] = system: HepG2 cells; experiment: Cell viability in the presence of a mitochondrial inhibitor (rotenone 10 μM); format: cell-based; conditions: for viability at 10 µM: Homo sapiens, read-out: CELL VIABILITY [%]
Description: as §1
The cytoprotective effects of representative compounds of Formula (I) were further examined in vitro in response to rotenone toxicity at (10 μM). […] Cells were treated with the representative compounds of Formula (I) compounds (10 μM) for 2 days before cells were challenged with 10 μM rotenone.
Vitamin K, Menadione and Idebenone were used as comparative controls.

[3] = system: LHON model induced by intravitreal rotenone in C57BL/6 mouse; experiment: Leber's hereditary optic neuropathy (LHON) mouse model, optomotor response; format: in vivo; conditions: rotenone in left eye, 200 mg/kg orally in food
Description: FIG. 5: Efficacy of representative compounds of Formula (I) in leber's hereditary optic neuropathy (LHON) mouse model. LHON induced by rotenone injection in the left eye (5 μM) in C57BL/6 mouse model (Refer to Heitz, F. D et al. (2012). PLoS One., 7(9), e45182). […] Representative compounds (UTA 37 and UTA 77) and idebenone administered at 200 mg/kg over the observation period.
LHON model was induced by intravitreal injection of rotenone into the left eye in C57BL/6 mouse model as described by Heitz et al. 2012. Representative compounds (UTA 37 and UTA 77) and idebenone administered at 200 mg/kg over the observation period. Vision loss was measured by assessing number of head turns.
C57BL/6 mice (male, 8-11 weeks of age, average body weight≈25 g) were used in accordance with the Australian code for the use of animals for scientific purposes and under the required animal ethics approval from the University of Tasmania (UTAS) Animal Ethics Committee (Approval number A0016080). Animals were given at least seven days to acclimatise to the animal facility to reduce stress induced by transportation before being used for behavioural testing. All mice were supplied orally with test compounds by mixing test compounds into individual daily food portions as described previously (Heitz, F. D. et al. (2012). PLoS One., 7(9), e45182). […]

[4] = system: HepG2 cells; experiment: Acute ATP rescue assay (impaired mitochondrial function, rotenone); format: cell-based
Description: HepG2 cells were seeded at a density of 5000 cells per well in a 96-well plate and incubated for 24 hours in DMEM with 0.3 g/l glucose, 10% FBS and Penicillin-Streptomycin-Glutamine. Cells were treated with 1 μM quinones in presence or absence of rotenone (10 μM), for 60 minutes in glucose-free DMEM ATP levels were quantified using luminescence from the ATP-dependent enzymatic oxidation of luciferin by luciferase. Cells were lysed in a volume of 40 μl (4 mM EDTA, 0.2% Triton X-100) for five minutes at room temperature (RT) on an orbital shaker at 200 rpm. […] Luminescence was quantified immediately using a multimode plate reader (Fluoroscan Ascent, Thermo Scientific). ATP levels were standardized to protein levels using a commercial BCA assay (Protein DC; BioRad) and changes were calculated as percentage relative to levels of DMSO-treated control cells. Data is expressed as % ATP compared to the untreated (no-rotenone) control.
Vitamin K, menadione and idebenone were used as comparative controls. DMSO was used as a control.

[5] = system: HepG2 cells; experiment: ATP rescue in the presence of a mitochondrial inhibitor (rotenone 10 μM); format: cell-based; conditions: compounds 10 uM for 2 days, then 10 μM rotenone challenge
Description: The extent of ATP rescue of representative compounds of Formula (I) were further examined in vitro in response to rotenone toxicity at (10 μM). […] Cells were treated with the representative compounds of Formula (I) compounds (10 μM) for 2 days before cells were challenged with 10 μM rotenone.

[6] = system: HepG2 cells; experiment: Extracellular lactate levels, enzyme-linked colorimetric assay; format: cell-based; conditions: HepG2 culture medium; for Extracellular lactate [% control]: 25 mM glucose, supernatant after 48 h, standardized to protein; for Effect on lactate production (in words): comment on the lactate table
Description: Lactate concentrations in culture medium were determined by an enzyme-linked colorimetric assay. Briefly, 150,000 HepG2 cells were seeded in normal growth media (DMEM, 10% FCS, Pen/Strep) in each well of a 6-well plate (Life Science, USA) and incubated for 24 h. The media was replaced with growth media containing (25 mM glucose,) with and without test compounds. Three untreated wells containing only cells were considered the experimental baseline control and all compounds were tested in three different wells simultaneously. Supernatants were collected after 48 h and transferred into 96-well format. After the addition of 90 μl of reaction buffer (10 mM KH2PO4 pH 7.8, 1 mg/ml BSA, 0.5 mM PMS, 2 mM EDTA, 0.6 mM DCPIP, 0.8 mM NAD+, 5 U/ml glutamate-pyruvate-transaminase, 1.5 mM glutamate, 12.5 U/ml lactate dehydrogenase) the plate was incubated at 30° C. inside a multimode plate reader (Multiscan Go, Thermo Scientific) and absorbance was measured at 600 nm over a period of 100 minutes. A standard curve was generated using media spiked with known lactate concentrations. Finally, protein levels were quantified and the lactate concentration of each well was standardized to its protein content and was then expressed as % of control.
The extent of lactate reduction in the cell culture media by the test compounds of the subject invention and the Comparative Compounds vitamin K, menadione and idebenone is shown below in Table 6.

For `CC1=C(CCCC(=O)N[C@@H](Cc2ccccc2)C(=O)O)C(=O)c2ccccc2C1=O` [UTA #37, (S)-2-(4-(3-methyl-1,4-naphthoquinone-2-yl)butanamido)-3-phenylpropanoic Acid], the viability at 10 µM ([1]; HepG2) was 100%, the viability at 10 µM ([2]; HepG2, 48 h) was 100% and the “Protection of visual acuity (head turns, optomotor response; in words)” value [3] was “Statistically significant protection of visual acuity”.
In the case of Vitamin K [reference compound], the “ATP rescue (in words)” value ([4]; HepG2, rotenone, comment on Table 4) was “no or minor effects”, the “ATP rescue [%]” value ([4]; HepG2, 1 μM quinones with rotenone 10 μM, 60 minutes, glucose-free DMEM, % ATP compared to untreated (no-rotenone) control) was 3.5% and the “Protection of cell viability (in words)” value ([1]; HepG2, rotenone, comment on Table 5) was “no protective effect”. For the same compound, the “Viability [%]” value ([1]; HepG2, 10 μM test compound 2 days, 1 μM rotenone challenge 6 hours, 18 hours post-incubation, % of untreated (no-rotenone) control) was 14.5%, the “CELL VIABILITY [%]” value ([2]; HepG2, compounds 10 uM for 2 days, then 10 μM rotenone challenge) was 14.5% and the “% ATP RESCUE” value [5] was 3.5%. The “Extracellular lactate [% control]” value [6] was 92.0 % control and the “Effect on lactate production (in words)” value [6] was “slight but non-significant effect”.
In the case of `COC1=C(OC)C(=O)C(CCCCCCCCCCO)=C(C)C1=O` [Idebenone, idebenone, reference compound], the activity at 1 µM ([4]; Homo sapiens, 1 h, HepG2, 1 μM quinones with rotenone 10 μM, 60 minutes, glucose-free DMEM, % ATP compared to untreated (no-rotenone) control) was 81%, the viability at 10 µM ([1]; HepG2, 10 μM test compound 2 days, 1 μM rotenone challenge 6 hours, 18 hours post-incubation, % of untreated (no-rotenone) control, read-out: Viability [%]) was 66.2% and the viability at 10 µM ([2]; 48 h, HepG2, compounds 10 uM for 2 days, then 10 μM rotenone challenge) was 66.2%. The “Extracellular lactate [% control]” value [6] was 111.9 % control and the “Effect on lactate production (in words)” value [6] was “increase lactate concentrations”.
With `CC1=C(CCCCCCCCCCO)C(=O)c2ccccc2C1=O` [UTA #2, 2-(10-Hydroxydecyl)-3 methyl-1,4-naphthoquinone] the viability at 10 µM ([2]; HepG2, 48 h) was 68.9% and the melting point was 74 to 75 °C.
